The record followed here is PubChem BioAssay (NCI).

“And” between values parts separate entries of the source, which are not always exact repeats. Equal values may be shown once.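 Interpolation was linear, between the two tested concentrations surrounding the appropriate level; five concentrations were tested over 48 hours in 96-well plates. GI50: concentration for 50% inhibition of growth. The concentration for full growth arrest is given as TGI.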

The test deals with MDA-MB-468 breast. In words: DTP human tumour cell line panel, 48 h.
On to `O[C@H](CN1CC1)[C@@H](O)CN1CC1`, for which the GI50 is 0.389 µM and the TGI came out at 2.65 µM.
As to `Cn1c(O)c(N=NC(N)=S)c2ccccc21`, the GI50 is 20.4 µM and the TGI was above 100 µM.
Turning to `NS(=O)(=O)c1ccc(Nc2nc(N/N=C/c3ccccn3)nc(Nc3ccccc3)n2)cc1`, the GI50 was 0.318 µM and the TGI came to 2.01 µM.
For the compound `COc1ccc(S(=O)(=O)n2c3ccccc3n3ncc(-c4nnc(C)o4)c23)cc1`, the GI50 was 0.266 µM and the TGI stood at 5.49 µM.
On the same counts, the results for `Brc1ccc2c(c1)c(-c1nc(-c3c[nH]c4ncccc34)cs1)cn2CCCN1CCCCC1` are 1.7 µM and 3.25 µM.
Consider `NC(=S)N/N=C\c1nccc2c(C(F)(F)C(F)(F)C(F)(F)F)cccc12`, for which the 50% growth inhibitory concentration (GI50) was 0.04 µM and the TGI was 0.262 µM.
On the same counts, the results for `Cc1cc(Cl)ccc1NC(=O)NC(C)(C)COC(=O)Nc1cccc(Cl)c1` are 4.61 µM and 36 µM.
With `COc1cc2c(cc1O)CC[C@@H]1C2CC[C@@]2(C)C1CC[C@@H]2O` (stereo partly drawn), the GI50 is 31.1 µM and the total growth inhibition concentration (TGI) is above 100 µM.
Taken in the same sequence, the figures for `CCN(CC)CCOc1nc2cc(OC)c(OC)cc2c2c1-c1ccc(OC)cc1C2=O` were 10.1 µM and 23.1 µM.
Taken in the same sequence, the figures for `CCCNc1cccc(-n2ncc3c(N/N=C/c4ccncc4)ncnc32)c1` were 0.768 µM and above 25 µM.
Taken in the same sequence, the figures for `C#CCOc1cccc(Nc2ncc3ncn(C4CCN(C(=O)CCl)C4)c3n2)c1` (stereo not drawn) were 19.7 µM and above 62.5 µM.
On to `Cc1ccc(/C=C2\CN(Cc3cn(CCNc4ccnc5cc(Cl)ccc45)nn3)C/C(=C\c3ccc(C)cc3)C2=O)cc1`, for which the GI50 is 1.62 µM and the TGI stood at 3.72 µM.
On the same counts, the results for `Cc1nc2sc(C(=O)Nc3cccc(Cl)c3C)c(N)c2cc1C(C)O` (stereo not drawn) are 0.0712 µM and 4.44 µM.
Taken in the same sequence, the figures for `c1cc2ccc1CNCCN1CCNCc3ccc(cc3)Oc3ccc(cc3)CNCCN(CCNCc3ccc(cc3)O2)CCNCc2ccc(cc2)Oc2ccc(cc2)CNCC1` were 0.673 µM and 2.09 µM.
With `O=C(c1ccccc1)c1ccccc1C(=O)c1ccccc1`, the GI50 is 28.7 µM and the TGI was above 100 µM.
Taken in the same sequence, the figures for `C[C@H]1CC2=CC(=O)CC[C@]2(C)[C@H]2CC[C@@]3(C)[C@@H](CC[C@]3(C)O)[C@H]12` were 33.9 µM and above 100 µM.
In the case of `O=c1oc2cc(OS(=O)(=O)c3ccccc3)ccc2c2c1CCCCC2`, the GI50 is 2.85 µM and the TGI was above 100 µM.
`N#CC1CCc2c(c(-c3cn[nH]c3C(F)(F)F)nc3c(F)cc4[nH]ncc4c23)C1` (stereo not drawn): the GI50 is 2.19 µM and the TGI turned out to be 6.23 µM.
`C=C1C[C@@H]2[C@H](CC[C@]3(C)C(=O)CC[C@@H]23)[C@@]2(C)C=CC(=O)C=C12`: the GI50 is 14.6 µM and the TGI worked out at 65.2 µM.
Consider `O=C(Nc1ccc(-c2ccnc(Nc3ccc(N4CCOCC4)cc3)n2)cc1)C1CCCN1` (stereo not drawn), for which the GI50 was 10.2 µM and the TGI was determined as 26.3 µM.
On the same counts, the results for `CC[C@H](C)[C@H](NC(=O)c1nccn1C)C(=O)N(C)[C@H](C[C@@H](OC(C)=O)c1nc(C(=O)N[C@@H](Cc2ccccc2)C[C@H](C)C(=O)OC)cs1)C(C)C` are 0.427 µM and above 33.3 µM.
Taken in the same sequence, the figures for `C=C1C(=O)O[C@H]2[C@H]1CC/C(COC(=O)/C=C/c1c[nH]c3ccccc13)=C\CC[C@@]1(C)O[C@@H]21` were 0.196 µM and 0.404 µM.
Consider `COc1cc(CNC(=O)CCSc2nc3ccccc3c(=O)n2Cc2cc(OC)c(OC)c(OC)c2)cc(OC)c1OC`, for which the GI50 was 2.35 µM and the TGI turned out to be 9.67 µM.
Taken in the same sequence, the figures for `Cc1[nH]n(-c2ccccc2)c(=O)c1C(=O)c1ccccc1` were 17.5 µM and above 25 µM.
With `CC(C)(F)C[C@H](N[C@@H](c1ccc(-c2ccc(S(C)(=O)=O)cc2)cc1)C(F)(F)F)C(=O)NC1(C#N)CC1`, the GI50 is 54.4 µM and > 100 µM; the total growth inhibition concentration (TGI) is 55 µM and > 100 µM.
As to `O=C(O)c1ccc2cccnc2c1O`, the GI50 is 1.41 µM and the TGI worked out at 6.5 µM.
Taken in the same sequence, the figures for `CS(=O)(=O)Nc1cc(-c2ccc3ncnc(Nc4cccc(Cl)c4F)c3c2)cnc1Cl` were 1.28 µM and 3.44 µM.
On the same counts, the results for `Cc1ccc2cnc(N)c(C#Cc3cncc(C(=O)Nc4ccc(CN5CCN(C)CC5)c(C(F)(F)F)c4)c3)c2c1` are 0.662 µM and 1.47 µM.
On the same counts, the results for `C=C(C)[C@@H]1CC[C@]2(C)[C@H](CC=C3[C@@H]4[C@H](C)[C@@H](C)CC[C@]4(CO)CC[C@]32C)[C@@]1(C)CCCN` are 0.819 µM and 1.66 µM.
Regarding `O=S1(=O)CC(Br)C(Br)C1` (stereo not drawn), the GI50 is 1.39 µM and the TGI is 3.82 µM.
On the same counts, the results for `CC1(C)N=C(N)N=C(N)N1c1ccc(OCCCCNC(=O)c2ccc(S(=O)(=O)F)cc2)c(Cl)c1` are 18.4 µM and above 100 µM.
`O=c1[nH]cnc2nc(-c3ccc(N(CCCl)CCCl)cc3)[nH]c12`: the GI50 was above 100 µM and the TGI was above 100 µM.
For the compound `OC1CCN(CCCOc2c3ccccc3nc3c2oc2ccc(Cl)cc23)CC1`, the GI50 is 1.61 µM and the TGI was found to be 5.71 µM.
In the case of `N#Cc1ncc(N2C(=O)C3(CCC3)N(c3ccc(OC4CCNCC4)nc3)C2=S)cc1C(F)(F)F`, the GI50 was 9.8 µM and the TGI was determined as 24.6 µM.
In the case of `FC(F)(F)c1cc(NC2=NCCN=C(Nc3cc(C(F)(F)F)cc(C(F)(F)F)c3)SS2)cc(C(F)(F)F)c1`, the GI50 is 2.07 µM and the total growth inhibition concentration (TGI) amounted to 7.45 µM.
Regarding `O=C(Nc1cccc([N+](=O)[O-])c1)c1cc2ccccc2cc1O`, the GI50 was 2.32 µM and the concentration for total growth inhibition (TGI) came to 17.5 µM.
In the case of `Cc1ccc(S(=O)(=O)c2ccsc2N)cc1`, the GI50 is 36.7 µM and the concentration for total growth inhibition (TGI) is above 100 µM.
Taken in the same sequence, the figures for `CN1CCc2c(sc3ncnc(N/N=C/c4ccc(Cl)c(Cl)c4)c23)C1` were 10.9 µM and 25.8 µM.
On the same counts, the results for `CCC(=O)OC1=CN2C(=NC(c3ccc(N)cc3)=CC2c2cc(OC)c(OC)c(OC)c2)S1` (stereo not drawn) are 2.1 µM and 6.32 µM.
